Patent US20260250318A1, “COMPOSITIONS AND METHODS FOR CROSSING THE BLOOD BRAIN BARRIER” (VOYAGER THERAPEUTICS, INC., priority 2022, published 2026)

Columns and labels:
[1] = test system: brains, heart, liver, muscle, and DRG of the NHPs; experiment: Maturation of TTM-001 and TTM-002 capsids, NGS enrichment in NHP tissues; assay type: in vivo; conditions: relative to AAV9 control
Procedure, shortened: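 Variants carry mutations within and flanking the loop IV peptide insert: positions 450–466 were triplet-randomized, while positions 449–466 received low-frequency point mutations. The combined pool went into two NHPs, and each peptide was scored by NGS enrichment ratio against AAV9.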

brain = experiment: Matured TTM-001 and TTM-002 variants, NGS enrichment in mouse brain; assay type: in vivo, mice; conditions: relative to AAV9 control
[2] = NGS fold-enrichment of matured AAV capsid variants, NHP brain, RNA
[3] = NGS fold-enrichment of RNA, NHP brain
[4] = NGS fold-enrichment, NHP liver DNA
[5] = NGS fold-enrichment, NHP liver RNA
[6] = NGS fold-enrichment, NHP muscle
[7] = NGS fold-enrichment, mouse brain
[8] = NGS fold-enrichment, DRG of NHPs
[9] = NGS fold-enrichment, RNA, brain of NHPs
[10] = NGS fold-enrichment, heart of NHPs
[11] = NGS fold-enrichment, liver DNA of NHPs
[12] = NGS fold-enrichment, liver RNA of NHPs
[13] = NGS fold-enrichment, muscle of NHPs
[14] = NGS fold-enrichment, brain of mice

| Sequence | Fold Enrichment relative to AAV9, Brain (NHP) [1, 2] [fold] | Fold Enrichment relative to AAV9, DRG (NHP) ([1]; NHP DRG) [fold] | Fold Enrichment relative to AAV9, Heart (NHP) ([1]; NHP heart) [fold] | Fold Enrichment relative to AAV9, Liver DNA (NHP) ([1]; NHP liver, DNA) [fold] | Fold Enrichment relative to AAV9, Liver RNA (NHP) ([1]; NHP liver, RNA) [fold] | Fold Enrichment relative to AAV9, Muscle (NHP) ([1]; NHP muscle) [fold] | Fold Enrichment relative to AAV9, Brain (Mouse) (brain; mouse brain) [fold] | Fold Enrichment relative to AAV9, Brain (NHP) [1, 3] [fold] | Fold Enrichment relative to AAV9, DRG (NHP) ([1]; NGS fold-enrichment, NHP DRG) [fold] | Fold Enrichment relative to AAV9, Heart (NHP) ([1]; NGS fold-enrichment, NHP heart) [fold] | Fold Enrichment relative to AAV9, Liver DNA (NHP) [1, 4] [fold] | Fold Enrichment relative to AAV9, Liver RNA (NHP) [1, 5] [fold] | Fold Enrichment relative to AAV9, Muscle (NHP) [1, 6] [fold] | Fold Enrichment relative to AAV9, Brain (Mouse) (brain; [7]) [fold] | Fold Enrichment relative to AAV9, DRG (NHP) [1, 8] [fold] | Fold Enrichment relative to AAV9, Brain (NHP) [1, 9] [fold] | Fold Enrichment relative to AAV9, Heart (NHP) [1, 10] [fold] | Fold Enrichment relative to AAV9, Liver DNA (NHP) [1, 11] [fold] | Fold Enrichment relative to AAV9, Liver RNA (NHP) [1, 12] [fold] | Fold Enrichment relative to AAV9, Muscle (NHP) [1, 13] [fold] | other results |
| --- | --- | --- | --- | --- | --- | --- | --- | --- | --- | --- | --- | --- | --- | --- | --- | --- | --- | --- | --- | --- | --- |
| KTINGSGSPHSYHVNQQT | 50.486 | 0.000 | 0.056 | 0.275 | 0.528 | 0.059 | 179.489 | – | – | – | – | – | – | – | – | – | – | – | – | – | – |
| KTVNGHDSPHKSGRNQET | – | – | – | – | – | – | – | 102.695 | 0.000 | 0.286 | 0.027 | 0.000 | 0.000 | 11.958 | – | – | – | – | – | – | – |
| KTINGGGSPHSKAQNQLI | – | – | – | – | – | – | – | 83.881 | 0.000 | 0.000 | 0.387 | 0.046 | 0.000 | 78.383 | 0.000 | 83.881 | 0.000 | 0.387 | 0.046 | 0.000 | Fold Enrichment relative to AAV9, Brain (Mouse) (brain; [14]): 78.383 fold |
| KNHIGSGSPHSKAQNQQT | – | – | – | – | – | – | – | – | – | – | – | – | – | – | 0.000 | 64.535 | 0.000 | 0.187 | 1.253 | 0.000 | Fold Enrichment relative to AAV9, Brain (Mouse) (brain; [14]): 70.356 fold |
| KTINGLGSPHSKSQNQQT | – | – | – | – | – | – | – | – | – | – | – | – | – | – | 0.000 | 62.170 | 0.157 | 0.107 | 0.146 | 0.000 | Fold Enrichment relative to AAV9, Brain (Mouse) (brain; [14]): 64.139 fold |
| KTINGHDSPHKSGQSVPT | – | – | – | – | – | – | – | 77.840 | 0.000 | 0.003 | 0.061 | 0.136 | 0.000 | 6.768 | – | – | – | – | – | – | – |
| KTINGSGSPHSKAQSTMT | 51.249 | 0.018 | 0.002 | 0.341 | 0.321 | 0.002 | 73.213 | – | – | – | – | – | – | – | – | – | – | – | – | – | – |
| KNINGSGSPHSKAQNHQT | 54.248 | 0.000 | 0.034 | 0.075 | 0.340 | 0.000 | 74.979 | – | – | – | – | – | – | – | – | – | – | – | – | – | – |
| KGVLGSGSPHSKAQNQQT | 54.472 | 0.000 | 0.007 | 0.189 | 0.359 | 0.027 | 145.740 | – | – | – | – | – | – | – | – | – | – | – | – | – | – |
| KTINGGGSPHSKSQNQLT | – | – | – | – | – | – | – | 82.231 | 0.000 | 0.070 | 0.498 | 0.000 | 0.000 | 126.986 | 0.000 | 82.231 | 0.070 | 0.498 | 0.000 | 0.000 | Fold Enrichment relative to AAV9, Brain (Mouse) (brain; [14]): 126.986 fold |
| KTENMSGSPHSKAQNQQT | – | – | – | – | – | – | – | 89.247 | 0.000 | 0.000 | 0.260 | 0.000 | 0.000 | 130.568 | 0.000 | 89.247 | 0.000 | 0.260 | 0.000 | 0.000 | Fold Enrichment relative to AAV9, Brain (Mouse) (brain; [14]): 130.568 fold |
| KTESAHDSPHKSGQNQQT | – | – | – | – | – | – | – | 80.810 | 0.000 | 0.039 | 0.000 | 0.000 | 0.000 | 13.338 | – | – | – | – | – | – | – |
| KTINGSGSPHSKAQAIKT | – | – | – | – | – | – | – | – | – | – | – | – | – | – | 0.255 | 74.261 | 0.000 | 0.132 | 0.186 | 0.000 | Fold Enrichment relative to AAV9, Brain (Mouse) (brain; [14]): 73.560 fold |
| KTVNASGSPHSKAQNQLT | 51.249 | 0.000 | 0.000 | 0.268 | 0.000 | 0.000 | 99.559 | – | – | – | – | – | – | – | – | – | – | – | – | – | – |
| KTINGGGSPHSKAQRQQT | 50.998 | 0.000 | 0.041 | 0.142 | 0.991 | 0.000 | 147.942 | – | – | – | – | – | – | – | – | – | – | – | – | – | – |
| KTINGNGSPHSKSQNQHT | 51.379 | 0.000 | 0.054 | 0.082 | 0.000 | 0.000 | 56.614 | – | – | – | – | – | – | – | – | – | – | – | – | – | – |
